In patent US10174015B2, “Substituted heterocyclic derivative, preparation method and use thereof” (Xiamen University, priority 2014, dated 2019):

Tests used:
[1] = Assay on drug metabolism in rat; assay type: in vivo, SD rats; conditions: SD, plasma, iv, 30 mg/Kg via jugular vein
Excerpt: 50 SD rats (purchased from Shanghai SLAC Laboratory Animal Co., Ltd) were divided into 5 groups randomly, 10 rats per group. After anesthesia with ether, rat was fixed on the operating table on its back, and was shaved at the operative site of neck. After disinfection with 75% alcohol, the neck was cut about 1.5 cm longitudinally, muscle tissues and nervi vascularis surrounding trachea were separated by blunt dissection, and carotid artery was separated by blunt dissection. Ligation was performed at distal end, an artery clamp was used at proximal part, and the distance between them was about 1 cm. A small cut was made with a pair of ophthalmic scissors at proximal part close to the ligated site, and arterial duct was introduced from the small cut to the proximal part, the artery clamp was loosened, the arterial ostium was clamped with smooth forceps, whilst the arterial duct was delivered to heart ventricle. Upon the introduction of the arterial duct into heart ventricle, the blood vessel was ligated. By using the same intubation method for artery, intubation was applied to jugular veins. After intubation, a tubule filled with heparin sodium was drawn out from artery and vein, which passed through the skin under the ear of the rat and drawn out from the dorsal part skin of the neck of the rat, and the tubule was fixed well. The muscles and skin were sutured at the surgical site of the rat, and normal saline containing heparin sodium was injected from time to time via the tubule connecting the artery and the vein to prevent tubule obstruction due to blood coagulation. The rat was placed in a warm and clean cage provided with water and food, waiting for the rat to wake up naturally.
After the rat regained consciousness and acted normally, assay on metabolic stability of compounds was performed in the rat. All the agents to be injected (including compounds to be tested and control drug) were dissolved in a mixed solvent of PEG400:Tween 80:normal saline (at a volume ratio of 5:5:90), at a concentration of 5 mg/mL. The agent was injected slowly at a dose of 30 mg/Kg via the tubule drawn out from the jugular vein. After administration, the time was recorded, and blood was collected from the tubule drawn out from carotid artery at 2, 5, 10, 20, 30, 60, 240, 360, and 720 min, in an amount of 200 μL for each time. The whole blood was placed in commercially available heparin sodium blood-collecting tube (Jiangxi Jingzhi Medical Equipment Co., Ltd.), centrifuged at 1800 g for 15 min. To the supernatant plasma, 150 μL pre-cooled methanol stopping buffer (containing internal standard E8, 1 nmol/sample) was added, vertically mixed well, and then centrifuged at 4° C., 12000 g for 10 min. The supernatant was transferred to a sample vial, the target compound was detected by LC-MS/MS, and the content of the compound was calculated by virtue of standard curve.

SNI neuropathic pain = assay: Neuropathic pain mouse model induced by spared nerve injury (SNI); assay type: in vivo, C57BL/6 mice; conditions: SNI mice; for effect compared to positive control drug gabapentin: 10 mg/kg i.p. vs gabapentin 100 mg/kg, 1 h after administration
Protocol: (§1) In the Experimental example, compounds to be evaluated or compounds to be tested or test compounds used are the Compounds 1-46 prepared in the Examples according to the invention. In the Experimental example, all the agents for injection, including compounds to be evaluated or compounds to be tested or test compounds, and positive control drug, were dissolved in a mixed solvent of PEG400:Tween 80:normal saline (at a volume ratio of 5:5:90), at a concentration of 5 mg/mL.
Neuropathic pain mouse model induced by spared nerve injury (SNI) is a common animal model for studying neuropathic pain medically. The invention uses the model to evaluate the therapeutic effects of the compounds on neuropathic pain, wherein the model can represent peripheral neuropathic pain including, but not limited to post-herpetic neuralgia, pain caused by diabetic perineuropathy, neurothlipsis and exudation caused by tumor, lumbar surgery failure syndrome, neuropathic pain caused by lumbar disc protrusion, postpartum neuralgia, trigeminal neuralgia, chemotherapy-induced multiple neuropathic pain, post-radiotherapy plexopathy, and radicular neuralgia.
C57BL/6 mice (purchased from Shanghai SLAC Laboratory Animal Co., Ltd) were anesthetized by intraperitoneal injection with pentobarbital sodium (40 mg/kg), and skin from knee joint to gluteal region was subjected to skin preparation and disinfection. After the mice were fixed, the knee joint part was cut about 1 cm longitudinally with bistoury, and muscle tissues were separated by blunt dissection to expose sciatic nerve. The tibial and common peroneal nerve branches of sciatic nerve stem were cut off carefully, and the cut was then stitched up. The mice was placed in a clean observation cage. In the sham-operation group, only sciatic nerve was exposed without cutting the tibial and common peroneal nerve branches. From the day before the experiment to 24 h after the operation, the plantar edges of the mice were stimulated everyday by […] (Ugo Basile Company (Italy), Product ID: 37450), and data was collected automatically to obtain the threshold value of mice to mechanical stimulation. […] The positive control drug gabapentin was administered at a dose of 100 mg/kg. All the agents to be injected were dissolved in a mixed solvent of PEG400:Tween 80:normal saline (at a volume ratio of 5:5:90), at a concentration of 5 mg/mL. By comparing the threshold values (the acting force of when the mouse retracting the paw) at different administration time in different administration groups, the compound was evaluated for its analgesic effect on neuropathic pain.

[2] = tested on: inflammatory abdominal pain caused by acetic acid; assay: Abdominal inflammatory pain caused by acetic acid; assay type: in vivo, Kunming mice; conditions: mice, 10 mg/kg i.p. 1 h before acetic acid; indometacin 20 mg/kg (FIG. 4)
Protocol: as §1
Typical model for studying inflammation-induced visceral pain medically was used to evaluate the therapeutic effects of compounds on inflammatory visceral pain. The model can represent general visceral pain including, but not only limited to appendicitis, gastritis, pancreatitis, prostatitis, myocarditis, interstitial cystitis, pain caused by hepatic, gall or kidney stone, irritable bowel syndrome, and chronic pelvic pain syndrome.
Experimental Kunming mice (purchased by Xiamen University Laboratory Animal Center from Shanghai SLAC Laboratory Animal Co., Ltd) were in an experimental environment with free access to food and water for 1 week. The mice were fasted for 24 h before administration. The compound to be evaluated (10 mg/kg) was administered to the mice by intraperitoneal injection at 1 h before administration of acetic acid, wherein the positive control drug indometacin was administered at a dose of 20 mg/kg, and the blank control was normal saline. Acetic acid (50 μL, acetic acid dissolved in normal saline, at a concentration of 5%) was administered to the mice by intraperitoneal injection, and the mice were then placed in the observation cage. A video camera was used to record the behavior of the mice in the following 20 min. Pain-related behavior was analyzed statistically based on torsion times of the mice in said period.

[3] = 10 mg/kg i.p. (gabapentin 100 mg/kg), 4 h after administration
[4] = 10 mg/kg intraperitoneal, 1 h and 4 h after administration (FIGS. 1 and 2)

| SMILES | half-life [1] [h] | effect of inhibiting central neuropathic pain (SNI neuropathic pain; [3]) | effect compared to positive control drug gabapentin (SNI neuropathic pain) | analgesic effect (SNI neuropathic pain; 10 mg/kg i.p., 10 h after administration (FIG. 3)) | effect of inhibiting central neuropathic pain (SNI neuropathic pain; [4]) | effect of inhibiting abdominal inflammatory pain [2] |
| --- | --- | --- | --- | --- | --- | --- |
| O=C(CCCCCc1ccccc1)N1CCOC1=O [Compound 2, Phenylhexanoyl Oxazolidinone] | 2.4 | retained a relatively strong effect of inhibiting central neuropathic pain | not as effective as the control drug | still had a sustained analgesic effect | significant effects of inhibiting central neuropathic pain | significant effects of inhibiting abdominal inflammatory pain |
| O=C(CCCCCc1cccc(Cl)c1)N1CCOC1=O [Compound 9, 3-Chlorophenylhexanoyl Oxazolidinone] | 1.95 | retained a relatively strong effect of inhibiting central neuropathic pain | not as effective as the control drug |  | significant effects of inhibiting central neuropathic pain | significant effects of inhibiting abdominal inflammatory pain |
